Data from US20240156874A1, “METHODS FOR GENERATING STEM CELL-DERIVED BETA CELLS AND USES THEREOF” (President and Fellows of Harvard College, priority 2014, published 2024).

Columns and labels:
SC-β cells [1] = test: In vitro SC-β cell function screen: stimulation index of SC-β cells generated with the agent; format: cell-based, human; settings: FIG. 1A
Protocol: Stimulation index=[insulin@20 mM glucose]/[insulin@2 mM glucose]. Relative Stim Index=Stim Index/Stim Index of Control.
FIG. 3 is a schematic illustration depicting an overview of the chemicals used and approach for the initial screen.

beta cells = settings: Table 1, background knowledge on the screened compounds; cited from earlier work
[2] = test system: BMP4-induced phosphorylation of Smads 1, 5 and 8; settings: HEK293 cells; cited from earlier work
KDR (VEGFR-2) = KDR (VEGFR-2) (Homo sapiens, UniProt P35968); settings: cited from earlier work
AMPK = settings: cited from earlier work
PDGFRβ = PDGFRβ (Homo sapiens, UniProt P09619); settings: cited from earlier work
SC-β cells [3] = test: In vivo function of SC-β cells generated with the agents, after transplantation into mice
Source text: FIG. 4B is a Table quantifying the improvement in stimulation index and mean 30′ insulin post injection illustrated in FIG. 4A.
FIG. 5B is a Table quantifying the improvement in stimulation index and mean 30′ insulin post injection illustrated in FIG. 5A.

ALK5 = target: T1, ALK5 (Homo sapiens, UniProt P36897); settings: cited from earlier work
T1 sequence (P36897 34-503): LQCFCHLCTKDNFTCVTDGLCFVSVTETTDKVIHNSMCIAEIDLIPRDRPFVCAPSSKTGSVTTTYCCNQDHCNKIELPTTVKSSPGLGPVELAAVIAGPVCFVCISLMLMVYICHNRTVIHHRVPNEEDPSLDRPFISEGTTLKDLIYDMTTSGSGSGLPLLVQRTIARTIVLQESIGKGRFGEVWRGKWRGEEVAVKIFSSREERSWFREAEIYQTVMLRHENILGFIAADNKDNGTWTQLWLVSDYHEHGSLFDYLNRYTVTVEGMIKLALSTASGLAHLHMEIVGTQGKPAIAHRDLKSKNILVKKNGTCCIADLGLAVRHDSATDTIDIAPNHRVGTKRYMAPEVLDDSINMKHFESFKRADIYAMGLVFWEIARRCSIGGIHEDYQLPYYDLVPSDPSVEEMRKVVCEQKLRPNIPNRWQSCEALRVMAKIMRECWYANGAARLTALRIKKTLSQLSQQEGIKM

TGFRII = TGFRII (Homo sapiens, UniProt P37173); settings: relative to TGFRI kinase (ALK5); cited from earlier work
[4] = test system: p38a, p38b, p38d, JNK1, EGFR, MAPKAPK2, MKK6, ERK2, PKC, PKA, PKD, CDC2, and CaMKII; settings: relative to TGFRI kinase (ALK5); cited from earlier work

Sequence of PDGFRβ (P09619 33-1106, species assumed): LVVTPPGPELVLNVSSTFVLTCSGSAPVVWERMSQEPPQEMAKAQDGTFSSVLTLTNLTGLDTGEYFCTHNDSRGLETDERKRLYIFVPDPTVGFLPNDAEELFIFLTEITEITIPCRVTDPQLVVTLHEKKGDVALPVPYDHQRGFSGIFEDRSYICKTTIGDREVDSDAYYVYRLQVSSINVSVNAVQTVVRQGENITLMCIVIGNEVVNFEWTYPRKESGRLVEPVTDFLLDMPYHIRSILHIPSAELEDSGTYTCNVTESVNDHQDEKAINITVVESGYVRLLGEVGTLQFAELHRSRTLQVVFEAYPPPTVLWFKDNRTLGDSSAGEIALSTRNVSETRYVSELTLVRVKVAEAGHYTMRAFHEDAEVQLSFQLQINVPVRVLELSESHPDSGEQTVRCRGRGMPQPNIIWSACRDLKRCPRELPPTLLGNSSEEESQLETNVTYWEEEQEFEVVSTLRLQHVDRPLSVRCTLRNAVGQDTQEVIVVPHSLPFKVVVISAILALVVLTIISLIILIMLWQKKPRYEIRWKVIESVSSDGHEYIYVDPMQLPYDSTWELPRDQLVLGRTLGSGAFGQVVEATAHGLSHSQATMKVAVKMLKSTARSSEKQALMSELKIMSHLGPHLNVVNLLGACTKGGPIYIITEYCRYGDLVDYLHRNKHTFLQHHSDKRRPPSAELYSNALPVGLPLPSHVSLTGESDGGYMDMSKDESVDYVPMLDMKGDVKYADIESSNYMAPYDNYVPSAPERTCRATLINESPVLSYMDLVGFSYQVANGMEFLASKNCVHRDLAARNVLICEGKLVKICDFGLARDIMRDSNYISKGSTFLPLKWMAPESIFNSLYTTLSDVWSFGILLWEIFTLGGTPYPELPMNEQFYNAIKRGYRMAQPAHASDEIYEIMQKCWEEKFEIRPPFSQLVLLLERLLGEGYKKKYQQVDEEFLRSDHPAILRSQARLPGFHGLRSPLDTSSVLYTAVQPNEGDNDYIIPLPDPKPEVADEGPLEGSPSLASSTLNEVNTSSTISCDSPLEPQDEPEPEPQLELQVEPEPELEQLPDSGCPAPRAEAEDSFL
Sequence of TGFRII (P37173 23-567): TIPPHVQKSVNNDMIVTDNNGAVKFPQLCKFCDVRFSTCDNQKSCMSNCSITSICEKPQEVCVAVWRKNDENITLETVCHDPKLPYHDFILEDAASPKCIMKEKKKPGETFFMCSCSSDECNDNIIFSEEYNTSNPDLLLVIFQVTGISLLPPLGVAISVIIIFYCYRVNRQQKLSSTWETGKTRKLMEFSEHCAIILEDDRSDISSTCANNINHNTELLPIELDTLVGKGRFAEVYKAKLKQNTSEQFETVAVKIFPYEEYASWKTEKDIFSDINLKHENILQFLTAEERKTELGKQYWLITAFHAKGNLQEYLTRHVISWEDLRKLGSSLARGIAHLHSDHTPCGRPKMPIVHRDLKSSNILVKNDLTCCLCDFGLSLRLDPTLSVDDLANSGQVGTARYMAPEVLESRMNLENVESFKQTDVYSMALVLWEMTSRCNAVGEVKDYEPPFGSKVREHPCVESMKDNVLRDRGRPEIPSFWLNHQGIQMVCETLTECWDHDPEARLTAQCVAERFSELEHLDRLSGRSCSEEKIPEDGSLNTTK
Sequence of KDR (VEGFR-2) (P35968 20-1356, species assumed): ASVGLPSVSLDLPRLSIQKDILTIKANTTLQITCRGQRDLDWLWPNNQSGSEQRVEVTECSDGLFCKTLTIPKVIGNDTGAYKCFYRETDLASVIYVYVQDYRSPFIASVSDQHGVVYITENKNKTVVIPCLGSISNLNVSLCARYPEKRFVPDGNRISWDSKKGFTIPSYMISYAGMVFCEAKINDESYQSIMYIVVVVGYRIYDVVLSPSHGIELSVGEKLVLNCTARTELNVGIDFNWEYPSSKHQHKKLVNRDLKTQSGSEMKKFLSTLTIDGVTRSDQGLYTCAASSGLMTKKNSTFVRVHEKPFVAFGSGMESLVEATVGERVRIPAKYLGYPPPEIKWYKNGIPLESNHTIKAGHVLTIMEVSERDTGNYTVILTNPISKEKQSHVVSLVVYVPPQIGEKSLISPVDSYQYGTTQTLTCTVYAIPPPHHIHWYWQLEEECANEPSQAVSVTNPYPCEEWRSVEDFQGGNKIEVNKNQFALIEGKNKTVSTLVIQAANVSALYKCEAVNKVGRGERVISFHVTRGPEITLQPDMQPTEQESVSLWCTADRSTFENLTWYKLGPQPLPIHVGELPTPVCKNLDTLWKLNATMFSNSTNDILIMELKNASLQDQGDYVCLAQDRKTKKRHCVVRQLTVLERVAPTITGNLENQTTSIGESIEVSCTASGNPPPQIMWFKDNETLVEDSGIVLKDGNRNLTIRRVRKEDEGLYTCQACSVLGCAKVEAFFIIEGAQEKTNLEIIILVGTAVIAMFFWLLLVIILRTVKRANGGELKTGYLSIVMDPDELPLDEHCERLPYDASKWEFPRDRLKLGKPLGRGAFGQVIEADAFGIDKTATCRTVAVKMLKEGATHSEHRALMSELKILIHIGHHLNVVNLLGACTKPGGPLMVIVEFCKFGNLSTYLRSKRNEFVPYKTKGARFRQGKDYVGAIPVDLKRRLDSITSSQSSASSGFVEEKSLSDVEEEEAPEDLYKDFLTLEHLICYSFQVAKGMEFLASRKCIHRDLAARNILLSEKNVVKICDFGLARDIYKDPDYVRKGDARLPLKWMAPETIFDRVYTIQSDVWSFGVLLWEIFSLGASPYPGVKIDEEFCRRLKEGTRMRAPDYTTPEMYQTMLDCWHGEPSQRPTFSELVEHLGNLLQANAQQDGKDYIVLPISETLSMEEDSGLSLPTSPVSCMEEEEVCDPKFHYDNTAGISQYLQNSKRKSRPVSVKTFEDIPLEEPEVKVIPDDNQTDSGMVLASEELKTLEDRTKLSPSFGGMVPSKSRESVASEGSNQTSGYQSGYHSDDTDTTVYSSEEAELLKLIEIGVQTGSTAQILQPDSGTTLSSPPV

| SMILES | Stimulation index of resulting SC-β cells relative to control SC-β cells (SC-β cells [1]; concentration not given) | Effect on Beta Cells (beta cells) | other results |
| --- | --- | --- | --- |
| Cc1cccc(-c2nn(C(=S)Nc3ccccc3)cc2-c2ccnc3ccccc23)n1 [A83-01] | worse stimulation indices | Reduces apoptosis of pancreatic beta cells, increases insulin |  |
| CC(C)Oc1ccc(-c2cnc3c(-c4ccnc5ccccc45)cnn3c2)cc1 [DMH-1, 4-[6-[4-(1-Methylethoxy)phenyl]pyrazolo[1,5-a]pyrimidin-3-yl]-quinoline] |  | Aids differentiation of zebrafish beta cells | Effect on BMP4-induced phosphorylation of Smads 1, 5 and 8 [2]: block BMP4-induced phosphorylation of Smads 1, 5 and 8; Stimulation index of resulting SC-β cells relative to control SC-β cells (SC-β cells [1]; agent 1 μM, Stimulation index=[insulin@20 mM glucose]/[insulin@2 mM glucose]): greater stimulation index; Inhibition of KDR (VEGFR-2) (KDR (VEGFR-2)): no detectable inhibition; Inhibition of AMPK (AMPK): no detectable inhibition; Inhibition of PDGFRβ receptors (PDGFRβ): no detectable inhibition; In vivo function of SC-β cells generated using the agent(s) (SC-β cells [3]; 2 weeks post-transplantation into mice, FIG. 4A): improved in vivo function; In vivo function of SC-β cells generated using the agent(s) (SC-β cells [3]; 4 weeks post-transplantation into mice, FIG. 5A): improved in vivo function; Inhibition of ALK5 (ALK5): no detectable inhibition |
| Oc1ccc(-c2nc(-c3ccc(F)cc3)c(-c3ccncc3)[nH]2)cc1 [SB202190] | worse stimulation indices | Reduced apoptosis in beta cells |  |
| C[S+]([O-])c1ccc(-c2nc(-c3ccc(F)cc3)c(-c3ccncc3)[nH]2)cc1 (stereo not drawn) [SB203580] | worse stimulation indices | Reduced apoptosis in beta cells |  |
| NC(=O)c1ccc(-c2nc(-c3ccc4c(c3)OCO4)c(-c3ccccn3)[nH]2)cc1 [SB431542, 4-[4-(1,3-benzodioxol-5-yl)-5-(2-pyridinyl)-111-imidazol-2-yl]benzamide] |  | Reduces apoptosis of pancreatic beta cells, increases insulin |  |
| Fc1ccc(Cl)cc1-c1nc(Nc2ccncc2)c2nccnc2n1 [SD208] |  | Helps maintain growth of human pancreatic cancer cells | Specificity against TGFRII (TGFRII): > 100 fold; Specificity over members of a panel of related protein kinases [4]: at least 17 fold |
| N#CC(=C(/N)Sc1ccccc1N)/C(C#N)=C(\N)Sc1ccccc1N [U0126] | worse stimulation indices | Reduced apoptosis in beta cells |  |
